Test results from article PMC7827406, “Structure–Activity Relationship (SAR) Study of Spautin-1 to Entail the Discovery of Novel NEK4 Inhibitors” (International Journal of Molecular Sciences, 2021).
Like-named read-outs stand apart in the source and are kept apart here.

Tests used:
Experiment in all cases: biochemical
Parameters in all cases: Eurofins KinaseProfiler full panel at Km ATP, residual kinase activity (%) relative to DMSO
LKB1(h) = target: T1, LKB1(h) (Homo sapiens, UniProt Q15831)
T1 construct: gene STK11
T1 sequence (Q15831 1-433): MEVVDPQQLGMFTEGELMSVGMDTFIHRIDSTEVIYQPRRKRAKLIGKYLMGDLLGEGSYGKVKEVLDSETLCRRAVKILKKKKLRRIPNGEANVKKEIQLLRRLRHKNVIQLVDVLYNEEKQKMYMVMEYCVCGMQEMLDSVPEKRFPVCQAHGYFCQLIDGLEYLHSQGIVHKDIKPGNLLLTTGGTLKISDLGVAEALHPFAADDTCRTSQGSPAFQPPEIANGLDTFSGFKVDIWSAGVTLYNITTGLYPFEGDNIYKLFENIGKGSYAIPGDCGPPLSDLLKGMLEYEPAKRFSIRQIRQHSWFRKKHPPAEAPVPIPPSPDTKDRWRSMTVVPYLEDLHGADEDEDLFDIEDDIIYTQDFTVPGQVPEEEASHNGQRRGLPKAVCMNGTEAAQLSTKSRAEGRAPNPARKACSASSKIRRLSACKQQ
T1 sequence (Q7RTN6 1-431 partner): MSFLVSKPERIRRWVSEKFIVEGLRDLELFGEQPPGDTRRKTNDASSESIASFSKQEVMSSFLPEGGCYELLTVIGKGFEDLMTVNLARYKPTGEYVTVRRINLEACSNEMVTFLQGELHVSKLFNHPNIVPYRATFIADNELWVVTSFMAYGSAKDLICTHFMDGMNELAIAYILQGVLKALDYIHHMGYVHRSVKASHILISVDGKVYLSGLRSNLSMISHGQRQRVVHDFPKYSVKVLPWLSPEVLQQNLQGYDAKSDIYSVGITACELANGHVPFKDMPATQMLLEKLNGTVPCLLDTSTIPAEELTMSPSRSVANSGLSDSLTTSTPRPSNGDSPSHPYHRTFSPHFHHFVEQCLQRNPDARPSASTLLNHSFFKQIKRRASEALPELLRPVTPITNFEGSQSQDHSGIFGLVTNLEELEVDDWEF
T1 sequence (Q9Y376 1-341 partner): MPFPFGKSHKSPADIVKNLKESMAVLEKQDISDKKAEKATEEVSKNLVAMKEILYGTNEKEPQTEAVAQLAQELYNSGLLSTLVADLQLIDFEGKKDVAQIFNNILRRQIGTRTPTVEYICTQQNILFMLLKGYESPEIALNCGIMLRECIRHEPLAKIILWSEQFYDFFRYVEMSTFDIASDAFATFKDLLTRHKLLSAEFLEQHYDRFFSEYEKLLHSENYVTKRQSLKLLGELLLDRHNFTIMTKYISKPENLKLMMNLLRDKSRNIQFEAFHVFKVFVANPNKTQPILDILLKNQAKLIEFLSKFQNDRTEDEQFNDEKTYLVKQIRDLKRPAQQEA
How it was run: (§1)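 Radiometric kinase activity assays were run with ATP at Km and compounds at 10 µM, and remaining activity (%) was reported. A separate competitive binding screen measured DNA-tagged kinase displaced from immobilized active-site ligands by qPCR, giving percent kinase still bound at 10 µM compound in DMSO.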

CDKL2(h) = target: T2, CDKL2(h) (Homo sapiens, UniProt Q92772)
T2 sequence (Q92772 1-493): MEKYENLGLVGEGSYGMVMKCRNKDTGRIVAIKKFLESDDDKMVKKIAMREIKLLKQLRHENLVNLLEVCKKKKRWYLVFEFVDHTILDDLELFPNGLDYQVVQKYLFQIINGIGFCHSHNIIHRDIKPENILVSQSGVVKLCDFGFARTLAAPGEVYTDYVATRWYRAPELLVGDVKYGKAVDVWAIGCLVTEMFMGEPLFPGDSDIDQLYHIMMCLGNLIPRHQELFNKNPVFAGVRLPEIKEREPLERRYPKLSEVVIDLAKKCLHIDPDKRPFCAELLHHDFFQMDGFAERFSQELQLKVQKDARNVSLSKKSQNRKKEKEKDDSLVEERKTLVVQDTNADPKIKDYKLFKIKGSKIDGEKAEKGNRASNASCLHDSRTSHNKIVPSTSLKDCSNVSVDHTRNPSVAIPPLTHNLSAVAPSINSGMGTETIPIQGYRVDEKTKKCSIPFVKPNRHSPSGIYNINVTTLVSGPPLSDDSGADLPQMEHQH
How it was run: as §1

TGFBR1(h) = target: T3, TGFBR1(h) (Homo sapiens, UniProt P36897)
T3 sequence (P36897 1-503): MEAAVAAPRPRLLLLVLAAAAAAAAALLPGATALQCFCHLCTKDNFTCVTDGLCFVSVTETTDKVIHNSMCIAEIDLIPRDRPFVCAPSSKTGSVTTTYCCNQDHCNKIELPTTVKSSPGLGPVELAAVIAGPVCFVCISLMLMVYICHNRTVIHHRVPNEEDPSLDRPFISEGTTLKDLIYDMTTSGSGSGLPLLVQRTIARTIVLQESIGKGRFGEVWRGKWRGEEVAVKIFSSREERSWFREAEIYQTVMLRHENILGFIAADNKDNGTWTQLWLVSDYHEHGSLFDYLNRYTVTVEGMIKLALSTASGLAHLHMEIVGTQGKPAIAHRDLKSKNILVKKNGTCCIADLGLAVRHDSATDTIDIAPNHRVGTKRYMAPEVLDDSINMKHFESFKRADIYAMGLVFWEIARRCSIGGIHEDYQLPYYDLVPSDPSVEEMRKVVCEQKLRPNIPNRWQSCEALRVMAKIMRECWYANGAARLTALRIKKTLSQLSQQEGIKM
How it was run: as §1

Lyn(h) = Lyn(h) (Homo sapiens, UniProt P07948)
How it was run: as §1

[1] = read-out: Residual activity (%) Spautin-1 5aa
[2] = read-out: Residual activity (%) 5as
[3] = read-out: Residual activity (%) 5at
[4] = read-out: Residual activity (%) 5ay

Sequence of Lyn(h) (P07948 whole entry): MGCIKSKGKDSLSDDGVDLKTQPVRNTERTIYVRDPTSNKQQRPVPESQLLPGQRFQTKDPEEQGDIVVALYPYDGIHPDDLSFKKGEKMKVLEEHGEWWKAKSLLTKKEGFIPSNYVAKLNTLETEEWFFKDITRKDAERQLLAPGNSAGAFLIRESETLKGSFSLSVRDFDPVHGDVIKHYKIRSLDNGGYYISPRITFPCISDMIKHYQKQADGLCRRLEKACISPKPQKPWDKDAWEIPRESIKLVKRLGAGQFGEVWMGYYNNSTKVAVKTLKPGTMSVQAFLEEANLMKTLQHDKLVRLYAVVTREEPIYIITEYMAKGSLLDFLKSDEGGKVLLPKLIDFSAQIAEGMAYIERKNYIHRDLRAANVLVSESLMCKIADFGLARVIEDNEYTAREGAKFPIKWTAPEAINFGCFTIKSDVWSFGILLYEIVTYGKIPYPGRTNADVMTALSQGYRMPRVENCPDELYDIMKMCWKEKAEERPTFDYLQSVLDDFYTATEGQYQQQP

For `Fc1ccc(CNc2ncnc3ccc(F)cc23)cc1` [5aa, 6-Fluoro-N-(4-fluorobenzyl)-4-Quinazolinamine], the remaining activity at 10 µM (LKB1(h); [1]) was 86%, the remaining activity at 10 µM (CDKL2(h); [1]) was 87% and the remaining activity at 10 µM (TGFBR1(h); [1]) was 87%. It also gave a remaining activity at 10 µM (Lyn(h); [1]) of 103%.
`Fc1ccc(CCNc2ncnc3ccc(F)cc23)cc1` [5as, 6-Fluoro-N-[2-(4-Fluorophenyl)Ethyl]-4-Quinazolinamine] showed a remaining activity at 10 µM (LKB1(h); [2]) of 81%, a remaining activity at 10 µM (CDKL2(h); [2]) of 103% and a remaining activity at 10 µM (TGFBR1(h); [2]) of 97%. For the same compound, the remaining activity at 10 µM (Lyn(h); [2]) was 89%.
With `Fc1ccc2ncnc(NCCc3ccc(Cl)cc3)c2c1` [5at, N-[2-(4-Chlorophenyl)Ethyl]-6-Fluoro-4-Quinazolinamine] the remaining activity at 10 µM (LKB1(h); [3]) was 73%, the remaining activity at 10 µM (CDKL2(h); [3]) was 67% and the remaining activity at 10 µM (TGFBR1(h); [3]) was 86%. For the same compound, the remaining activity at 10 µM (Lyn(h); [3]) was 91%.
`COc1ccc2ncnc(Nc3cccc(F)c3)c2c1` [5ay, N-(3-Fluorophenyl)-6-Methoxy-4-Quinazolinamine] showed a remaining activity at 10 µM (LKB1(h); [4]) of 100%, a remaining activity at 10 µM (CDKL2(h); [4]) of 67% and a remaining activity at 10 µM (TGFBR1(h); [4]) of 94%. It also gave a remaining activity at 10 µM (Lyn(h); [4]) of 80%.
